Measurements reported in PubChem BioAssay (NCI).
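Cultured in 96-well plates, cells were exposed to test compound for 48 hours across five concentrations. Here, GI50 denotes the concentration required for 50% inhibition of growth. TGI denotes the concentration required for complete inhibition of growth.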

Assays:
Test in all cases: NCI anticancer screen, dose series, 48 h
T-47D breast = test system: T-47D breast
BT-549 breast = test system: BT-549 breast
DU-145 prostate = test system: DU-145 prostate
MDA-MB-435 = test system: MDA-MB-435
SK-OV-3 ovarian = test system: SK-OV-3 ovarian
SK-MEL-5 melanoma = test system: SK-MEL-5 melanoma
CAKI-1 renal = test system: CAKI-1 renal
U251 CNS = test system: U251 CNS
SNB-78 CNS = test system: SNB-78 CNS
DMS 273 small cell lung = test system: DMS 273 small cell lung
XF 498 CNS = test system: XF 498 CNS
786-0 renal = test system: 786-0 renal

Row | Compound | TGI (T-47D breast) | TGI (BT-549 breast) | TGI (DU-145 prostate) | TGI (MDA-MB-435) | TGI (SK-OV-3 ovarian) | TGI (SK-MEL-5 melanoma) | TGI (CAKI-1 renal) | TGI (U251 CNS) | TGI (SNB-78 CNS) | TGI (DMS 273 small cell lung) | TGI (XF 498 CNS) | TGI (786-0 renal) | GI50 (T-47D breast) | GI50 (DU-145 prostate) | GI50 (MDA-MB-435) | GI50 (SK-MEL-5 melanoma) | GI50 (CAKI-1 renal) | GI50 (U251 CNS) | GI50 (BT-549 breast) | GI50 (SK-OV-3 ovarian)
1 | OCC1NC(CO)C(O)C1O (configuration not stated) | > 100 µM | > 100 µM | > 100 µM | > 100 µM | > 100 µM | > 100 µM | > 100 µM | > 100 µM |  |  |  |  |  |  |  |  |  |  |  | 
2 | C=C(CN(C)C)C(=O)c1ccccc1 | 4.93 µM | 45 µM | 30.2 µM | 27.3 µM | 41 µM | 28.8 µM | 16.8 µM | 35.1 µM | 62.6 µM | 39.2 µM | 29.9 µM | 13.5 µM |  |  |  |  |  |  |  | 
3 | O=S1(=O)C[C@H](NCc2ccccc2)[C@H](NCc2ccccc2)C1 | 86.4 µM | > 100 µM | > 100 µM | > 100 µM | > 100 µM | > 100 µM | > 100 µM | > 100 µM |  |  |  |  |  |  |  |  |  |  |  | 
4 | CCOP(=O)(OCC)C(Cc1c[nH]c2ccccc12)C(=O)O (configuration not stated) | > 100 µM |  | > 100 µM | > 100 µM | > 100 µM | > 100 µM | > 100 µM | > 100 µM |  |  |  |  |  |  |  |  |  |  |  | 
5 | C[n+]1c(-c2ccc(/C=N\Nc3ccnc(N/N=C/c4ccc(-c5cn6ccsc6[n+]5C)cc4)n3)cc2)cn2ccsc21 |  |  | 78 µM | 6.94 µM | > 100 µM | 35.4 µM | 80.8 µM | 94.5 µM |  |  |  | 32.8 µM |  |  |  |  |  |  |  | 
6 | COc1ccc(CCn2ccc(C)n2)c(OC)c1 | > 100 µM | > 100 µM | > 100 µM | > 100 µM | > 100 µM | > 100 µM | > 100 µM | > 100 µM |  |  |  |  |  |  |  |  |  |  |  | 
7 | Nc1ccc(C2(c3ccc(N)cc3)C3CC4CC(C3)CC2C4)cc1 | 42.8 µM | 25.2 µM |  | 31.5 µM | 30 µM |  | 31.9 µM | 37 µM |  |  |  |  |  |  |  |  |  |  |  | 
8 | CC(C)N(CCNc1nc(C(Cl)(Cl)Cl)nc2cc(Cl)ccc12)C(C)C | 5.08 µM |  | 3.76 µM | 3.47 µM |  | 2.93 µM | 3.17 µM | 2.53 µM |  |  |  |  | 2240 nM | 1610 nM | 1710 nM | 1560 nM | 1600 nM | 1210 nM |  | 
9 | Nc1nc(N)c(N=Nc2ccccc2)c(=O)[nH]1 |  |  |  |  | > 100 µM | > 100 µM | > 100 µM | > 100 µM | 71.4 µM | > 100 µM | > 100 µM | > 100 µM |  |  |  |  |  |  |  | 
10 | Cc1ccc(S(=O)(=O)NCCCSCCN)cc1 | > 100 µM |  | > 100 µM | > 100 µM | > 100 µM | > 100 µM |  | > 100 µM |  |  |  |  |  |  |  |  |  |  |  | 
11 | CC(=O)OC/C=C\Cn1ncc(=O)[nH]c1=O | 69.9 µM |  | 42.8 µM | 39.3 µM |  | 26.7 µM |  | 28.2 µM |  |  |  |  |  |  |  |  |  |  |  | 
12 | CC=C/C=C/[C@@H]1O[C@](O)([C@H](CC)C(=O)NC/C=C/C=C(\C)[C@@H](OC)[C@@H](C)[C@@H]2O[C@H](/C=C/C=C/C=C(\C)C(=O)c3c(O)cc[nH]c3=O)[C@H](O)[C@@H]2O)[C@H](O)[C@H](O)C1(C)C |  |  |  | > 100 µM | > 100 µM |  |  | > 100 µM |  |  |  |  |  |  |  |  |  |  |  | 
13 | COc1ccc(/C=C/c2cc(O)cc(OC3OC(CO)C(O)C(O)C3O)c2)cc1O (configuration not stated) | > 100 µM | > 100 µM | > 100 µM | > 100 µM | > 100 µM | > 100 µM | > 100 µM | > 100 µM |  |  |  | > 100 µM |  |  |  |  |  |  |  | 
14 | CC(O)C1(O)C(O)CC(OC2c3cc4c(c(O)c3[C@@H]3C[C@@]2(C)OC32C=c3cc[nH]c3=N2)C(=O)c2cccc(O)c2C4=O)OC1C (some centres not stated) | 9.07 µM | 19.3 µM | 8.8 µM | 3.14 µM | 9.47 µM | 5.56 µM | 5.51 µM | 9.03 µM |  |  |  | 4.98 µM |  |  |  |  |  |  |  | 
15 | O=C(Nc1ccc(C(F)(F)F)cc1[N+](=O)[O-])C(=O)Nn1c(=S)[nH]c2ccccc2c1=O |  |  |  |  | > 100 µM | > 100 µM | > 100 µM | > 100 µM | > 100 µM | > 100 µM | > 100 µM |  |  |  |  |  |  |  |  | 
16 | O=Nn1c2ccccc2c2ccccc21 | > 100 µM | > 100 µM | > 100 µM | > 100 µM | > 100 µM | > 100 µM | > 100 µM | > 100 µM |  |  |  | > 100 µM |  |  |  |  |  |  |  | 
17 | CCOC(=O)CCCc1cc(=O)c2c(C)c3[nH]c4ccc(Cl)cc4c3c(C)c2[nH]1 |  | 41.8 µM | 57.2 µM | 47.8 µM |  | 49.2 µM | 43.2 µM | 50.5 µM |  |  |  | 38.2 µM |  |  |  |  |  |  |  | 
18 | Fc1ccc(C2CC(c3cccc(Nc4ccncc4)c3)=NN2c2ccccc2)cc1 (configuration not stated) | 4.62 µM | 3.46 µM | 3.91 µM | 3.14 µM | 19.9 µM | 3.22 µM | 3.02 µM | 3.64 µM |  |  |  |  | 2040 nM | 1980 nM | 1630 nM | 1780 nM | 1600 nM | 1840 nM | 1680 nM | 5.7 µM
